Experimental findings from patent US20220313651A1, “INHIBITORS OF ZIKA VIRUS INFECTION” (priority 2019, published 2022) are described below.

Where two headings read alike, the source gives them in different places.

The test system of series [1] is ZIKV PRVABC59 strain. As to the kind of experiment: Combinatorial effects of gossypol with other Z-medicaments, ZIKV PRVABC59. Format: cell-based, Zika virus (ZIKV). The conditions noted are these: for Fold of Enhancement: IC50 alone / in mixture; for CI (combination index): named compound in combination with gossypol. How it is done: The unbound viruses and Z-medicaments were removed, and the cells were cultured at 37° C. for 4-5 days, followed by staining with 0.5% crystal violet. The Z-medicaments without combinations were used as controls. The IC50 of the Z-medicaments was calculated as described above.
The Z-medicaments were then analyzed for synergistic effects based on the combination index (CI) and IC50 values using the CalcuSyn program. Specifically, CI values <1 and >1 indicate synergy and antagonism, respectively. Synergy was further identified as five different categories: CI values <0.1, 0.1-0.3, 0.3-0.7, 0.7-0.85, and 0.85-0.90 indicate very strong synergism, strong synergism, synergism, moderate synergism, and slight synergism, respectively. Fold enhancement of anti-ZIKV potency is expressed as the ratio of molar concentrations of the Z-medicaments tested alone and in the mixture.

In series [2] the test system is ZIKV human strain IbH 30656 (1968/Nigeria). As to the kind of experiment: Plaque reduction inhibition assay in Vero E6 cells, ZIKV IbH 30656. Type of series: cell-based, Zika virus (ZIKV). The method, then:
(§1) A plaque reduction inhibition assay was carried out to measure the inhibitory activity of Z-medicaments against infections of ZIKV and DENV. […] The compound-virus mixtures were then transferred to Vero E6 cells (10^5/well) and incubated at 37° C. for 1 h.

Series [3] deals with Vero E6 cells. As to the kind of experiment: in vitro. The method, then: The cytotoxicity of the Z-medicaments in Vero E6 (ZIKV target cells) was evaluated using the Cell Counting Kit-8 (CCK8).
Briefly, compounds at 2-fold serial dilutions were added to cells (2.0×10^4/well) pre-seeded in 96-well plates. The cells were cultured at 37° C. for 3 days, and incubated with CCK8 solution, followed by measurement of absorbance at 450 nm (A450 value) using microplate reader.

In series [4] the test system is ZIKV human strain PAN2015 (2015/Panama). As to the kind of experiment: microbe, parasite or virus in culture. Format: cell-based, Zika virus (ZIKV). The conditions noted are these: Vero E6 cells. From the text:
(§2) Vero E6 and LLC-MK2 cells were maintained in Dulbecco's Modified Eagle Medium (DMEM) supplemented with 8% fetal bovine serum (FBS) and penicillin and streptomycin (P/S). C6/36 cells were maintained in Eagle's Minimal Essential Medium (EMEM) supplemented with 5% FBS and P/S. ZIKV strains, including human strains PAN2016 (2016/Panama), R116265 (2016/Mexico), PAN2015 (2015/Panama), FLR (2015/Colombia), R103451 (2015/Honduras), PRVABC59 (2015/Puerto Rico), PLCal_ZV (2013/Thailand), and IbH 30656 (1968/Nigeria), mosquito strain MEX 2-81 (2016/Mexico), and rhesus macaque strain MR 766 (1947/Uganda), were used in the studies. These ZIKV strains were cultured in Vero E6 cells, and viral titers were detected by a standard plaque-forming assay. DENV human strains, including type 1: DENV-1-V1792 (2007/Vietnam), type 2: DENV-2-V594 (2006/Puerto Rico), type 3: DENV-3-V1043 (2006/Puerto Rico), and type 4: DENV-4-PR 06-65-740 (2006/Puerto Rico), were cultured in C6/36 cells, and the viral titers were determined by plaque-forming assay as described above.
(§3) A plaque reduction inhibition assay was carried out to measure the inhibitory activity of Z-medicaments against infections of ZIKV and DENV. […] The compound-virus mixtures were then transferred to Vero E6 cells (10^5/well) and incubated at 37° C. for 1 h. […] The cells were washed thoroughly with PBS, and overlaid with DMEM containing 1% carboxymethyl cellulose and 2% FBS, followed by in vitro culture at 37° C. for 4-5 days and then staining with 0.5% crystal violet.
(§4) After removal of the unbound compounds by centrifugation after addition of 3% PEG-6000, ZIKV was incubated with Vero E6 cells at 37° C. for 1 h. The cells were then washed with PBS, overlaid with DMEM containing 1% carboxymethyl cellulose and 2% FBS, and cultured at 37° C. for 4-5 days, followed by staining with 0.5% crystal violet.

Series [5] concerns ZIKV rhesus macaque strain MR 766 (1947/Uganda). As to the kind of experiment: Plaque reduction inhibition assay in Vero E6 cells, ZIKV MR 766. Type of series: cell-based, Zika virus (ZIKV). The method, then:
as §1

The test system of series [6] is ZIKV mosquito strain MEX 2-81 (2016/Mexico). As to the kind of experiment: Plaque reduction inhibition assay in Vero E6 cells, ZIKV MEX 2-81. Format: cell-based, Zika virus (ZIKV).
From the text: as §2, §3, §4

The target in series [7] is T1, ZIKV NS2B-NS3 protease (Zika virus, UniProt Q32ZE1).
T1 construct: 49-97) and NS2 protein (residues 1-185) through a covalent; made in house; host or cells: E. coli
The experiment in a line: Fluorescence-based inhibition of NS2B-NS3 protease activity. Type of series: biochemical. The conditions noted are these: substrate Bz-Nle-Lys-Lys-Arg-AMC 4 μM, protein 1 μg/ml. The method, then: Binding of compounds (NPs) to ZIKV full-length E (FIG. 3A), EDIII (FIG. 3B), and NS2B-NS3 (FIG. 3C) proteins, was detected by ELISA. The percent binding was reported in the presence or absence of serially diluted NPs using the formula (1-[E/EDIII-NP]/[E/EDIII])×100 (for E/EDIII binding) or (1-[NS2B-NS3-NP]/[NS2B-NS3])×100 (for NSEB-NS3 binding). […] The concentrations of ZIKV EDIII and mAbs were 1.5 and 0.5 μg/ml, respectively. […] The concentrations of substrate (Bz-Nle-Lys-Lys-Arg-AMC) and ZIKV NS2B-NS3 protein were 4 μM and 1 μg/ml, respectively. The percent inhibition of protease activity was calculated in the presence or absence of serially diluted compounds using the formula (1-[NS2B-NS3-substrate-NP]/[NS2B-NS3-substrate])×100. The IC50 values were calculated based on the percent inhibition. The data are expressed as mean±s.e.m. (n=4).

Where [8] appears, read: Vero E6 cells, 3 days, CCK8, Table 1.
[9] abbreviates: Zika virus, Vero C1008, in Macaca mulatta, Vero E6 cells, Table 1, read-out: IC50 against ZIKV strain MR 766.

On to `C[C@H]1[C@H]2CC[C@H]3[C@@H]4CC=C5C[C@@H](N(C)C)CC[C@]5(C)[C@H]4CC[C@]23CN1C` [Conessine, conessine], for which, in series [1] (gossypol + conessine), the “Fold of Enhancement” value amounted to 7.29. Further, the “CI (combination index)” value in series [1] is reported as 0.28.
For orientation: IC50 means the concentration that gives 50% inhibition. For orientation: CC50 means the concentration giving 50% cytotoxicity. On to `C[C@@H]1CC[C@@]2(OC1)O[C@H]1[C@@H](O)[C@H]3[C@@H]4CC[C@H]5C[C@@H](O[C@@H]6O[C@H](CO)[C@H](O[C@@H]7O[C@H](CO)[C@@H](O)[C@H](O[C@@H]8OC[C@@H](O)[C@H](O)[C@H]8O)[C@H]7O[C@@H]7O[C@H](CO)[C@H](O)[C@H](O[C@@H]8O[C@H](CO)[C@@H](O)[C@H](O)[C@H]8O)[C@H]7O)[C@H](O)[C@H]6O)[C@H](O)C[C@]5(C)[C@H]4CC[C@]3(C)[C@H]1[C@@H]2C` [Digitonin, digitonin], for which the IC50 in series [2] (Zika virus, Vero C1008, Table 1, read-out: IC50 against ZIKV strain IbH 30656) was determined as 5.3 ± 0.13 µM; in series [4] (Zika virus, Vero C1008, Table 1, read-out: IC50 against ZIKV strain PAN2015), 5 ± 0.01 µM; in series [5] (setting [9]), 3.77 ± 0.31 µM. Further, the midpoint of cytotoxicity in series [3] (setting [8]), the CC50, lay at 56.3 ± 1.2 µM. The “Fold of Enhancement” value in series [1] (gossypol + digitonin) came to 6.98. The “CI (combination index)” value in series [1] was 0.29.
In series [3] (African green monkey, 3 days), `Cc1cc2c(C(C)C)c(O)c(O)c(C=O)c2c(O)c1-c1c(C)cc2c(C(C)C)c(O)c(O)c(C=O)c2c1O` [Gossypol, gossypol] yielded a CC50 of 14.2 ± 0.74 µM. The IC50 in series [5] (setting [9]) was determined as 3.75 ± 0.01 µM; in series [5] (Zika virus, Vero C1008, in Macaca mulatta, read-out: ZIKV strains IC50, MR766) it was 4.14 ± 0.05 µM; in series [6] (Zika virus, Vero C1008, read-out: IC50 against ZIKV strain MEX 2-81) it was 2.79 ± 0.01 µM; in series [6] (Zika virus, Vero C1008, read-out: ZIKV strains IC50, MEX 2-81), 2.93 ± 0.01 µM.
On to `Cc1cc2c(C(C)C)c(O)c(O)c(/C=N/n3c(=O)[nH][nH]c3=O)c2c(O)c1-c1c(C)cc2c(C(C)C)c(O)c(O)c(/C=N/n3c(=O)[nH][nH]c3=O)c2c1O` [ST087010], for which the IC50 in series [7] (read-out: IC50, inhibition of ZIKV NS2B-NS3 protease cleavage) was found to be 4.84 µM; in series [2] (Table 7, gossypol derivatives, read-out: ZIKV strains IC50, IbH 30656) it was 2.94 ± 0.08 µM; in series [4] (Table 7, gossypol derivatives, read-out: ZIKV strains IC50, PAN2015), 3.5 ± 0.06 µM; in series [5] (Vero E6 cells, Table 7, gossypol derivatives, read-out: ZIKV strains IC50, MR766), 3.52 ± 0.2 µM; in series [6] (Vero E6 cells, Table 7, gossypol derivatives, read-out: ZIKV strains IC50, MEX 2-81), 2.92 ± 0.25 µM. Also, in series [3] (Vero E6 cells), the “CC50 relative to that of gossypol” value is given as “about 3.5 fold”. The half-maximal cytotoxic concentration (CC50) in series [3] (Vero E6 cells, Table 7, gossypol derivatives) is 49.6 ± 1.83 µM.
For the compound `COc1cc(/C=C/C(=O)CC(=O)/C=C/c2ccc(O)c(OC)c2)ccc1O` [Curcumin, curcumin], the “Inhibition of NS2B-NS3 protease activity (in words)” value in series [7] was “low inhibitory activity”. Besides, the CC50 in series [3] (setting [8]) worked out at 52.86 ± 0.52 µM. For the same compound, the “Fold of Enhancement” value in series [1] (gossypol + curcumin) is listed as 6.46. Further, the “CI (combination index)” value in series [1] turned out to be 0.30.
